Measured values: ChEMBL document CHEMBL5360532, “Current scenario of quinolone hybrids with potential antibacterial activity against ESKAPE pathogens” (Eur J Med Chem, 2023)
Converted amounts (≈) assume the structure as drawn.

Key:
Type in all cases: functional
[1] = tested on: Mycobacterium tuberculosis; assay: Antimycobacterial activity against extensive drug resistant Mycobacterium tuberculosis assessed as bacterial growth inhibition by agar cup diffusion assay
[2] = tested on: Mycobacterium tuberculosis; assay: Antimycobacterial activity against multidrug resistant Mycobacterium tuberculosis assessed as bacterial growth inhibition by agar cup diffusion assay
[3] = tested on: Mycobacterium tuberculosis; assay: Potency index, ratio of ciprofloxacin MIC to test compound MIC for antimycobacterial activity against multidrug resistant Mycobacterium tuberculosis assessed as bacterial growth inhibition by LJ slant assay
[4] = tested on: Mycobacterium tuberculosis; assay: Potency index, ratio of ciprofloxacin MIC to test compound MIC for antimycobacterial activity against extensive drug resistant Mycobacterium tuberculosis assessed as bacterial growth inhibition by LJ slant assay

Row | SMILES | MIC [1] | MIC [2] | Ratio [3] | Ratio [4]
1 | O=C(CN1CCN(c2cc3c(cc2F)c(=O)c(C(=O)O)cn3C2CC2)CC1)Nc1nnc(-c2ccccc2)s1 | 8 µg/mL (≈ 14.6 µM) | 8 µg/mL (≈ 14.6 µM) |  | 
2 | C=CCn1c(SCC(=O)N2CCN(c3cc4c(cc3F)c(=O)c(C(=O)O)cn4C3CC3)CC2)nnc1-c1ccccc1 | 4 µg/mL (≈ 6.8 µM) | 4 µg/mL (≈ 6.8 µM) |  | 
3 | O=c1c(-c2nnc(S)o2)cn(C2CC2)c2cc(N3CCNCC3)c(F)cc12 |  |  | >=32 | >=32
